According to patent US8143251B2, “Triazolotriazines as kinase inhibitors” (Incyte Corporation, priority 2006, dated 2012):

Target: T1, c-Met kinase (histidine-tagged c-Met catalytic domain fusion protein) (Homo sapiens, UniProt P08581)
T1 construct: histidine-tagged c-Met catalytic domain fusion protein (Invitrogen, #PV3143) was used for the assay; histidine tag; purchased Invitrogen PV3143
Assay: In vitro c-Met kinase enzyme assay
Type: biochemical
Conditions: poly Glu-Tyr phosphorylation, 5 μM ATP, 25 minutes at 30° C.; read-out: IC50 for the inhibition of c-Met kinase
Experimental: Compounds were screened in vitro for their ability to inhibit c-Met kinase activity. The IC50 values of compounds for the inhibition of c-Met kinase were determined as described in the literature with some modifications (Wang, X. et al, Mol. Cancer. Ther. 2003, 2(11):1085-1092; Calic, M. et al., Croatica Chemical ACTA. 2005, 78(3):367-374). Briefly, histidine-tagged c-Met catalytic domain fusion protein (Invitrogen, #PV3143) was used for the assay. IC50 measurements were based on the degree of phosphorylation of poly Glu-Tyr (Sigma-Aldrich, #PO275) that was coated (0.01 mg/per well) on 96-well microplates (R&D systems, #DY990). The reaction was carried out in a 50 μL solution containing 50 mM HEPES (pH 7.5), 10 mM MnCl2, 10 mM MgCl2, 0.5 mM DTT, 100 μM Na3VO4, 5 μM ATP (Cell Signaling Technology, #9804) and serial dilutions of individual compounds. The reaction lasted for 25 minutes at 30° C. After the reaction was completed, the contents of the plates was discarded. […] The optical density was measured immediately using a microplate reader at 450 nm with wavelength correction at 540 nm. IC50 values were calculated with the GraphPad Prism software. The linear range (i.e., the time period over which the rate remained equivalent to the initial rate) was determined for the kinase and IC50 determinations were performed within this range. […]

T1 sequence (P08581 1078-1345 limits assumed): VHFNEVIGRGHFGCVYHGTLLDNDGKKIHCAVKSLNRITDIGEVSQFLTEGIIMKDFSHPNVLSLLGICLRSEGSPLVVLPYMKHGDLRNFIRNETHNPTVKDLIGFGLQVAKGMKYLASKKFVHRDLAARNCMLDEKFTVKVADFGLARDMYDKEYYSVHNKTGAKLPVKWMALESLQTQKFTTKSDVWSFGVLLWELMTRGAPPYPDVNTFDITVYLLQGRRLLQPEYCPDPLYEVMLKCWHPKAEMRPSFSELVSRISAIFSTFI

COc1ccc(C2(c3nnc4ncc(-c5ccccc5)nn34)CC2)cc1 [Example 26, 3-[1-(4-Methoxyphenyl)cyclopropyl]-6-phenyl[1,2,4]triazolo[4,3-b][1,2,4]triazine]
IC50: 0.0129 µM
